Measurements as given in ChEMBL document CHEMBL5512671, “Structure-Based Optimization of Novel Sterol 24-C-Methyltransferase Inhibitors for the Treatment of Candida albicans Infections” (J Med Chem, 2024).
The source made the active and inactive calls. The calls are words filed in the database; no cut-off is given here.

Experiments:
[1] = Cytotoxicity against human BEAS-2B cells incubated for 48 hrs by CCK-8 method; type: toxicity, cell-based
Candida albicans [2] = assay: Upregulation of NRG1 expression in Candida albicans SC5314 at 1 ug/ml incubated for 6 hrs by qPCR analysis; type: functional; details: dose 1.0 µg/ml
Candida albicans [3] = assay: Downregulation of UME6 expression in Candida albicans SC5314 at 1 ug/ml incubated for 6 hrs by qPCR analysis; type: functional; details: dose 1.0 µg/ml
Candida albicans [4] = assay: Downregulation of ECE1 expression in Candida albicans SC5314 at 1 ug/ml incubated for 6 hrs by qPCR analysis; type: functional; details: dose 1.0 µg/ml
Candida albicans [5] = assay: Downregulation of HWP1 expression in Candida albicans SC5314 at 1 ug/ml incubated for 6 hrs by qPCR analysis; type: functional; details: dose 1.0 µg/ml
[Candida] auris = Antifungal activity against Candida auris CBS12774 assessed as inhibition of fungal growth incubated for 24 hrs by CLSI protocol based broth microdilution method; type: functional; details: Candidozyma auris
Nakaseomyces glabratus [6] = assay: Antifungal activity against Candida glabrata CG2 assessed as effect on cell size at 1 ug/ml measured after 6 hrs by microscopy based analysis; type: functional, organism-based; details: dose 1.0 µg/ml
Nakaseomyces glabratus [7] = assay: Antifungal activity against Candida glabrata CG2 assessed as effect on cell structure at 1 ug/ml measured after 6 hrs by microscopy based analysis; type: functional, organism-based; details: dose 1.0 µg/ml
Candida albicans [8] = assay: Antifungal activity against Candida albicans SC5314 assessed as inhibition of hyphae growth measured after 30 passages; type: functional, organism-based
Candida albicans [9] = assay: Synergistic antifungal activity against Candida albicans SC5314 assessed as fractional inhibitory concentration index incubated for 24 hrs in presence of terbinafine by broth microdilution checkerboard assay; type: functional
Candida albicans [10] = assay: Antifungal activity against Candida albicans SC5314 infected in Balb/C mouse candidiasis model assessed as decrease in skin fungal burden by measuring fold change at 0.5% administered topically and measured after 72 hrs; type: functional
Candida albicans [11] = assay: Antifungal activity against Candida albicans SC5314 infected in Balb/C mouse candidiasis model assessed as decrease in skin fungal burden by measuring fold change at 0.5 % administered topically and measured after 72 hrs in presence of terbinafine; type: functional
Candida albicans [12] = assay: Antifungal activity against Candida albicans SC5314 infected in Balb/C mouse candidiasis model assessed as filamentation defect at 0.5 % administered topically and measured after 72 hrs in presence of tridemorph by PAS staining based analysis; type: functional, organism-based
Candida albicans [13] = assay: Antifungal activity against Candida albicans SC5314 infected in Balb/C mouse candidiasis model assessed as filamentation defect at 0.5 % administered topically and measured after 72 hrs in presence of terbinafine by PAS staining based analysis; type: functional, organism-based
Candida albicans [14] = assay: Antifungal activity against Candida albicans SC5314 infected in Balb/C mouse candidiasis model assessed as appearance of inflammatory infiltrates at 0.5 % administered topically and measured after 72 hrs in presence of tridemorph by H and E staining based analysis; type: functional, organism-based
Candida albicans [15] = assay: Antifungal activity against Candida albicans SC5314 infected in Balb/C mouse candidiasis model assessed as appearance of inflammatory infiltrates at 0.5 % administered topically and measured after 72 hrs in presence of terbinafine by H and E staining based analysis; type: functional, organism-based
Candida albicans [16] = assay: Antifungal activity against Candida albicans SC5314 assessed as inhibition of hyphae growth measured after 6 hrs cultured under RPMI1640 medium by microscopy based analysis; type: functional, organism-based; details: dose 0.25-1 µg/ml
Candida albicans [17] = assay: Antifungal activity against Candida albicans SC5314 assessed as inhibition of hyphae growth measured after 6 hrs cultured under RPMI1640 medium/5% serum by microscopy based analysis; type: functional, organism-based; details: dose 0.25-1 µg/ml
Candida albicans [18] = assay: Antifungal activity against Candida albicans SC5314 assessed as inhibition of hyphae growth measured after 5 days cultured under YPD embedded agar medium and 10mM GlcNAc by microscopy based analysis; type: functional, organism-based; details: dose 0.25-1 µg/ml, time 5.0 day
Candida albicans [19] = assay: Antifungal activity against Candida albicans SC5314 assessed as inhibition of morphological transition at 0.5 ug/ml measured after 5 days cultured under solid spider agar medium by microscopy based analysis relative to control; type: functional; parameters: scale not given: the % may be the effect or the level left; details: dose 0.5 µg/ml; time 5 day
Candida albicans [20] = assay: Inhibition of cell adhesion in Candida albicans SC5314 to human HGE cells measured after 90 mins by fluorescence microscopy based analysis; type: functional; details: dose 0.5-2 µg/ml

Compound: Cc1c(-n2c(-c3ccc4ccccc4c3)cs/c2=N\c2ccccc2)c(=O)n(-c2ccccc2)n1C
- EC50 at 48 h [1]: > 50 µg/mL
- Activity (Candida albicans [2]): Active
- Activity (Candida albicans [3]): Active
- Activity (Candida albicans [4]): Active
- Activity (Candida albicans [5]): Active
- MIC ([Candida] auris): > 128 µg/mL
- Activity (Nakaseomyces glabratus [6]): inactive
- Activity (Nakaseomyces glabratus [7]): inactive
- Activity (Candida albicans [8]): Active
- fractional inhibitory concentration index (FICI) (Candida albicans [9]): <0.1
- fold change (FC) (Candida albicans [10]): 2.86
- fold change (FC) (Candida albicans [11]): 59.11
- Activity (Candida albicans [12]): Active
- Activity (Candida albicans [13]): Active
- Activity (Candida albicans [14]): inactive
- Activity (Candida albicans [15]): inactive
- Activity (Candida albicans [16]): Dose-Dependent Effect
- Activity (Candida albicans [17]): Dose-Dependent Effect
- Activity (Candida albicans [18]): Dose-Dependent Effect
- Activity (Candida albicans [19]): 100%
- inhibition (Candida albicans [20]): Dose-Dependent Effect
